{"source": "patent US11730716B2", "about": "“Compounds for treating ophthalmic diseases and disorders” (priority 2014, dated 2023)", "key": {"[1]": {"test_system": "vascular endothelial growth factor (VEGF)", "assay": "Cellular protein expression of VEGF in antigen-stimulated rat lymph node/T cell cultures (Luminex multiplex cytokine assay)", "assay_type": "cell-based", "details": "3 μM, 10 μM and 30 μM; supernatants after 24 h", "protocol": "Rats were immunized with 25 μg of the respective peptide as previously described.\nAfter 10 to 12 days popliteal, inguinal and para-aortal lymph nodes (LN) were collected, single cell suspensions were stimulated with the respective antigen peptides at a final concentration of 10 μg/ml RPMI1640, supplemented with Penicillin/Streptomycin, L-Glutamine, essential and non-essential amino acids (all 4 from PAA, Colebee, Germany), 12.5 μM […] and 1% normal rat serum. After 3 days the cells were expanded in culture medium supplemented with 10% spleen conditioned medium (from Concanavalin A-stimulated rat spleen cells) and 5% fetal calf serum (FCS) for 4 days.\nFor restimulation 0.5-2×10^6 T cells/ml were incubated with irradiated (8 Gy) rat thymocytes (3-10 fold more than T cells) as antigen-presenting cells (APC) and 10 μg/ml of the specific antigen peptide in culture medium as described for the first stimulation. After two days of culturing cells were expanded with conditioned medium for 5 days as described above, followed by another cycle of restimulation and expansion. […]"}, "[2]": {"assay": "in vivo", "design": "species or system Dutch Belted rabbits", "details": "male, Dutch Belted, rabbit, topical or ocular; for half-life: t1/2", "protocol": "36 male Dutch Belted rabbits were divided in […]: 16 animals each in group 1 and 2 received 0.0625 mg and 0.125 mg PP-001 per eye, 4 animals were administered with dose vehicle (sucrose solution) only. At designated time points animals were sacrificed and vitreous humor, retina, and choroid were collected from both eyes of each animal and weighed. Samples were analysed for PP-001 concentration using a specific HPLC/MS/MS analytical method and PK parameters were calculated with Phoenix WinNonlin software (v6.3) using a non-compartmental model with sparse sampling.\nAnimals were anesthetized with an intramuscular injection of ketamine hydrochloride (30 mg/kg) and xylazine (5 mg/kg) for the injection procedure.\nThe study director performed the IVT injection in both eyes (OU). Topical ocular anesthetics were used per ASI SOPs.\nThe eyes and surrounding tissues were cleaned and disinfected with 2% betadine ophthalmic solution and then rinsed with basic salt solution (BSS). Using a 30 gauge needle with length no greater than ⅝ inch, injections were made 5 to 7 mm from the limbus (where the cornea meets the sclera). Once inserted, the PP-001 or vehicle control was injected at a volume of 25 μL per eye. The needle was then removed and the eye rinsed with BSS.\nVitreous humor and choroid/sclera/retina were collected from both eyes of each animal at the designated time point and analyzed for PP-001 concentration using a specific HPLC/MS/MS analytical method."}, "[3]": {"test_system": "choroidal neovascularization", "assay": "Inhibition of choroidal neovascularization in PDSAg-induced EAU rat model", "assay_type": "in vivo, Lewis rats", "excerpt": "Choroidal neovascularization is a known feature of posterior uveitis and a major cause of retinal destruction and loss of vision. To monitor the effect of PP-001 on neovascularization, the EAU model in Lewis rats was used. In Lewis rats the disease was induced by immunizing animals with retinal antigen PDSAg, a 14mer derived from S—Ag. Immunization with that peptide emulsified in Complete Freund's Adjuvant (CFA) leads to severe inflammation of the anterior chamber of the eyes and destruction of the retinal architecture and choroidal neovascularization Induction with PDSAg causes a monophasic disease with first clinical signs of inflammation observed between day 8 and 12 after immunization and reaching the peak of disease between day 14 and 18. Inflammation in the anterior chamber subsides until day 21 to 22 post immunization. Long term effects such as choroidal neovascularization are seen at the later stages of the disease after the inflammation of the anterior chamber has subsided. 18 Lewis rats were immunized with PDSAg. Starting at the beginning of the disease (day 9 post immunization) 6 animals were treated with PP-001 and 6 animals were treated with vehicle control. […] Post day 25 experiment was stopped and 12 eyes for each treatment group were histological analyzed for the presence of choroidal neovascularizations."}, "[4]": {"test_system": "retinal and choroidal tissue", "assay": "Tolerability of intravitreal injections of PP-001 solutions in Dutch Belted rabbits", "assay_type": "in vivo", "details": "intravitreal 0.0625 or 0.125 mg/eye"}, "[5]": {"test_system": "intraocular tissues", "assay": "Local tolerability of intravitreal injections of PP-001 in rat eyes", "assay_type": "in vivo", "details": "high dose PP-001 (150 μg/ml, 10 μl intravitreal); 8 days", "protocol": "For this purpose, three different doses of PP-001, dissolved in phosphate-buffered saline (PBS) and a vehicle control with PBS only were injected into the posterior chamber (=vitreous) of rat eyes. The eyes (anterior chamber) were examined daily with an ophthalmoscope and after 8 days the experiment was terminated, and the eyes processed for histology (cryosections).\n8 Lewis rats (age 7-8 weeks) were anesthetized using 0.5 mg/kg medetomidine s.c. Additional topical anesthesia with 0.4% oxybuprocaine eye drops was applied. After intraocular injection sedation was antagonized with an s.c. injection of 2.5 mg/kg atipamezol.\n10 μl of solution were injected into the vitreous of both eyes with a 30 G needle, controlled under an operation microscope. The perpendicular injection is penetrating the […] and should neither touch the lens or the retina. After injection an antibiotic ointment was applied to the eyes to avoid infections.\nPP-001 was dissolved in PBS and applied intravitreally in 3 different concentrations.\nGroup 1, Rat 1-1 and 1-2: 10 μl PBS (vehicle control)"}, "[6]": {"test_system": "dry eye syndrome", "assay_type": "in vivo", "protocol": "The aim of the study was to evaluate the tolerability and therapeutic potential of PP-001 in a murine model of dry eye syndrome.\nDry eye symptoms were induced in forty (40) pigmented C57BL/6N mice by exposing them to a controlled environment (relative humidity<25%, air-flow 15 L/min, temperature 20-22° C.) and systemic scopolamine administration (0.5 mg/72 h) for 10 days.\nMice were randomized into 4 groups of 10 animals and treated with PP-001, Restasis®, placebo and the forth group remained untreated.\nTear production and corneal defects were evaluated on days 3, 7 and 10 using phenol red thread and fluorescence staining in each of the four groups.\nPreparation of Eye Drop Solutions:\nPlacebo eye drops: A solution containing 20 mg/ml polyvinylpyrrolidone, 10 mg/ml glycerol 85%, 2 mg/ml hydroxypropyl methylcellulose in sodium phosphate buffer adjusted to pH 7.\nPP-001 eye drops: A solution containing 1.6 mg/ml PP-001, 20 mg/ml polyvinylpyrrolidone, 10 mg/ml glycerol 85%, 2 mg/ml hydroxypropyl methylcellulose in sodium phosphate buffer adjusted to pH 7.\nPositive control: Restasis® (cyclosporine ophthalmic emulsion from Allergan)"}, "[7]": {"test_system": "Ad5 McEwen", "assay": "Experimental adenoviral ocular infection (Ad5/NZW rabbit ocular model), eye drops, plaque assay on A549 monolayers", "assay_type": "in vivo", "protocol": "25 New Zealand White rabbits were inoculated in both eyes following general anesthesia with ketamine and xylazine, topical anesthesia with proparacaine, and corneal scarification (12 cross-hatched strokes of a #25 needle) with 50 μl of 3.0×10^7 PFU/ml (1.5×10^6 PFU/eye) of Ad5 McEwen (Stock 1/17/08, 4.08×10^8 PFU/ml). Eyes were closed and gently rubbed for 5 seconds to ensure contact of the virus on all ocular surfaces.\nAt least 3 h after inoculation, all eyes were cultured for virus. Following topical anesthesia with proparacaine, a single cotton-tipped swab was placed into the lower fornix of each eye, rolled over the cornea into the upper fornix to recover adenovirus from the tear film and corneal and conjunctival surfaces. The swabs from each eye were placed individually into tubes containing 1 ml of outgrowth media and were frozen at −70° C. pending plaque assay.\nOn day 1, the rabbits were divided into 5 treatment groups outlined in the chart below. The five treatment groups consisted of a vehicle control, 0.16% PP-001 8 times, 6 times, and 4 times daily for 10 days, and the positive antiviral control 0.5% cidofovir (CDV).\nBegin of treatment on day 1. Drops were administered with at least a 45 min interval between drops. All eyes from all groups were cultured for virus on days 1, 3, 4, 5, 7, 9, 11, and 14 PI at least 1 h after the final doses of the treatments described above. At various times during the course of the experiment, Ad5 titers were determined on A549 cell monolayers using standard plaque assays. The ocular cultures to be titered were thawed, diluted (1:10) and inoculated onto A549 monolayers. The virus was adsorbed for 3 h. Following adsorption, 1 ml of media plus 0.5% methylcellulose was added to each well, and the plates were incubated at 37° C. in a 5% […] atmosphere. After 7 days incubation, the cells were stained with 0.5% gentian violet, and the number of plaques were counted under a dissecting microscope (25×). The viral titers were then calculated, and expressed as plaque-forming units per milliliter (PFU/ml). […]"}, "[8]": {"test_system": "experimental autoimmune uveitis (EAU)", "assay": "Prevention of relapses in the experimental autoimmune uveitis (EAU) rat model, R14-induced, intravitreal injection", "assay_type": "in vivo, Lewis rats", "excerpt": "Experimental autoimmune uveitis (EAU) in Lewis rats is a model for human endogenous uveitis. The disease is mediated by CD4+ T lymphocytes of the T helper 1 (Th1) and Th17 subtypes. In Lewis rats the disease was induced by immunizing animals with retinal antigens such as interphotoreceptor retiniod-binding protein (IRBP) and adjuvant. IRBP is also considered to be an autoantigen in humans. Peptide R14, a 23mer from IRBP, is the most pathogenic epitope for Lewis rats. Immunization with these peptides emulsified in Complete Freund's Adjuvant (CFA) leads to severe inflammation of the anterior chamber of the eyes and destruction of the retinal architecture. R14 causes a relapsing-remitting disease with an early onset (about day 7), the peak of EAU between day 10 to 14 and the remission around day 17/18. 20 rats were immunized with 15 μg IRBP-peptide R14 emulsified in complete Freund's adjuvant. After primary disease, PP-001 was injected intravitreally at day 18 (6 μl=3 μg PP-001) in both eyes of 10 animals. One eye in this group dropped out because of penetrating the eye during injection. 10 animals received 6 μl PBS intravitreally in both eyes as control group. Clinical grade of inflammation in the anterior chamber was determined daily."}}}
{"smiles": "O=C(Nc1c(F)c(F)c(-c2cccc(OC(F)(F)F)c2)c(F)c1F)c1ccsc1C(=O)O", "note": "[PP-001, 3-(2,3,5,6-tetrafluoro-3′-trifluoromethoxy-biphenyl-4-ylcarbamoyl)-thiophene-2-carboxylic acid]", "values": [{"measurement": "protein expression of VEGF", "setting": "[1]", "value": "reduced"}, {"measurement": "Cmax", "setting": "[2]; 0.0625 mg", "value": 33.2, "unit": "µg/g"}, {"measurement": "t1/2", "setting": "[2]; 0.0625 mg", "value": 14.5, "unit": "h"}, {"measurement": "Cmax", "setting": "[2]; 0.0625 mg, Cmax", "value": 25.7, "unit": "µg/g"}, {"measurement": "half-life", "setting": "[2]; 0.0625 mg", "value": 858, "unit": "min"}, {"measurement": "Cmax", "setting": "[2]; 0.125 mg", "value": 56.9, "unit": "µg/g"}, {"measurement": "t1/2", "setting": "[2]; 0.125 mg", "value": 13.1, "unit": "h"}, {"measurement": "Cmax", "setting": "[2]; 0.125 mg, Cmax", "value": 61.5, "unit": "µg/g"}, {"measurement": "half-life", "setting": "[2]; 0.125 mg", "value": 1280, "unit": "min"}, {"measurement": "reduction of number of choroidal neovascularizations (factor)", "setting": "[3]; treatment started at beginning of uveitis (day 9 post immunization), vs vehicle, p<0.005", "value": 3}, {"measurement": "mean number of choroidal neovascularizations", "setting": "[3]; treatment started at day 15 (peak of disease), vehicle mean 6, p<0.05", "value": 3}, {"measurement": "effect on the retinal and choroidal tissue", "setting": "[4]", "value": "did not have any significant effect"}, {"measurement": "eyes completely normal", "setting": "[5]", "value": "2 of 4"}, {"measurement": "corneal staining compared to placebo treatment", "setting": "[6]; Day 10", "value": "reduced"}, {"measurement": "corneal staining in comparison to the induced untreated group", "setting": "[6]; Day 10, multiple instillations", "value": "reduced significantly"}, {"measurement": "corneal surface damage", "setting": "[6]; multiple topical administrations of PP-001 1.6 mg/mL", "value": "reduced corneal surface damage comparable to Restasis®"}, {"measurement": "dose response of antiviral efficacy", "setting": "[7]; 0.16% PP-001 8 times and 6 times per day vs 4 times per day, 10 days", "value": "more efficacious than 0.16% PP-001 instilled 4 times per day for 10 days"}, {"measurement": "safety as topical antiviral agent", "setting": "[7]; 0.16% PP-001 eye drops, 4-8 times daily for 10 days", "value": "safe"}, {"measurement": "antiviral efficacy (topical)", "setting": "[7]; 0.16% PP-001 eye drops, Ad5 titers PFU/ml", "value": "efficacious"}, {"measurement": "time to the appearance of the first relapse", "setting": "[8]; single intravitreal injection at day 18, 3 μg per eye, compared to placebo group", "value": "delayed"}, {"measurement": "reduction of the number of relapses", "setting": "[8]; single intravitreal injection at day 18, 6 μl = 3 μg per eye, vs PBS control", "value": "> 50", "unit": "%"}]}
